Experimental data reported in patent publication US20230398153A1, “A METHOD FOR EFFICIENT MICROGLIA REPLACEMENT” (The Board of Trustees of the Leland Stanford Junior …, priority 2020, published 2023).

Assays:
endogenous microglia [1] = assay: Depletion of endogenous microglia by PLX5622 diet; type: in vivo, mouse; conditions: PLX5622 diet for 21 days
Text: FIG. 8. Circulation-derived myeloid cells adopt a ramified microglia-like morphology upon brain engraftment. (A and B) Flow cytometry gating for analysis of donor chimerism in PB leukocytes (CD45+) (A) and brain myeloid cells (CD45+CD11b+)(B). (C) Representative images of circulation-derived myeloid cells (CDMCs)([…]) and host microglia (Iba-1+GFP−) cells and DAPI in the cortex of recipient mice at the indicated time points. Scale bars:50 μm. (D) Representative images of Iba-1+ cells in the cortex of mice treated with control or PLX5622 diet for 21 days. The right panels in each group are enlarged images of the boxed areas in the left panels. Scale bars: […]. (E) Iba-1+ cell density in the indicated brain regions was analyzed by microscopy (Mean±SEM, n=3/group, 6 brain slices/animal were quantified. ***p<0.001, Student's t-test). […]
Immunofluorescence microscopy. […] Images were obtained using a Zeiss LSM710 confocal microscope or Zeiss AxioImager motorized widefield fluorescence microscope.
Image analysis. […] For morphological analyses, Iba1+ cells and GFP+ cells in the indicated brain regions were analyzed. The number of Iba1+ cells, and number of branch points were manually counted using ImageJ. […] The length of processes in Iba-1+ cells was analyzed semi-automatically using NeuronJ plugin. The ratio of cell body to total cell area was analyzed using FracLac plugin as described. […]

endogenous microglia [2] = assay: Direct intracerebral injection of GFP bone marrow cells with or without PLX5622 pre-treatment; type: in vivo, mouse; conditions: 21-day PLX5622 pre-treatment; 14 days post IC injection
Description: FIG. 1. Microglia replacement after bone marrow transplantation is a slow, inefficient and variable process. (A) Schematic overview of bone marrow transplantation (HSCT). Recipient mice were received intraperitoneal (IP) injection of busulfan for 5 days at 25 mg/kg/day (i.e. 125 mg/kg total dose) and then transplanted with GFP-expressing bone marrow cells via intravenous (IV) injection. Donor chimerism in peripheral blood (PB) and brain myeloid cells was analyzed at the indicated time points. (B and C) Donor chimerism in PB leukocytes (CD45+ cells) and brain myeloid cells (CD45+CD11b+ cells) was analyzed by flow cytometry at the indicated time point. […] GFP chimerism in PB leukocytes (B) (Mean±SEM, n=5-20/time point, ***p<0.001, ns: not significant, ANOVA). GFP chimerism in brain myeloid cells (C) (Mean±SEM, n=5/time point, *p<0.05, **p<0.01, ns: not significant, ANOVA). (D) Flow cytometry analysis of GFP+bone marrow cells 14 days after direct intracerebral (IC) injection with (bottom) and without (top) PLX5622 pre-treatment of recipient mice. […] (F) Quantification of transplanted GFP+bone marrow cells in coronal brain sections. […] Horizontal bars represent mean values (n=3/group, 3 brain slices/animal were quantified. **p<0.01, ***p<0.001, Student's t-test). […] (H) Microglia chimerism was analyzed by flow cytometry 14 days post IV injection. […]

Compound: COc1ncc(F)cc1CNc1ccc(Cc2c[nH]c3ncc(C)cc23)c(F)n1 [PLX5622]
- elimination of endogenous microglia (Iba-1+ cell density) (endogenous microglia [1]): efficient elimination of endogenous microglia throughout the brain
- fate of bone marrow cells injected into the brain (endogenous microglia [2]): adopted microglia-like morphologies, expressed the microglial marker Iba-1, were more numerous, and dispersed wider into the brain parenchyma
